Entries after “also recorded” stand apart in the source; their conditions may differ. Positions of bridges follow the written chain, without caps; N, C: chain ends. Non-standard residues stand in square brackets, D forms with d. Residues, ends and D or L forms follow the SMILES beside them. Pen = CC(C)(S)[C@H](N)C(=O)O; Orn = NCCC[C@H](N)C(=O)O
Key:
[1] = system: model glycoproteins containing terminal Fuc, Gal and GalNAc sugar moieties; details: cited from earlier work
Description: We have shown previously that odorranalectin binds to model glycoproteins containing terminal Fuc, Gal and GalNAc sugar moieties with μM affinities and identified the binding interface.

[2] = system: tosylsulfonyl phenylalanyl chloromethyl ketone (TPCK) trypsin immobilized on agarose resin; assay: TPCK trypsin immobilized on agarose resin in digestion buffer (0.1 M NH4HCO3 [pH 8.0]); details: 37 °C, up to 16 h (methods); 24 h (results, b12 and Figure 2)
[3] = system: μ-opioid receptors (MOR); details: cited from earlier work
[4] = system: μ-opioid receptors (MOR); details: cited from earlier work; remark: listed apart in the source
[5] = system: C57BL/6J mice; assay: 55 °C warm-water tail-withdrawal test, compound alone
Description: Graded doses of OL-CTOP (100, 300 or 600 μg) were first administered through the intranasal (i.n.s.) route.
All mice were lightly anesthetized with isoflurane (0.4%) prior to compound administration. […] The volume of all i.c.v. injections was 5 μL, using a 10-μL Hamilton microliter syringe. An incision was made in the scalp of the lightly anesthetized mouse, and the injection was made 2 mm lateral and 2 mm caudal to bregma at a depth of 3 mm.
The 55 °C warm-water tail-withdrawal test was performed as previously described [73]. The distal 2.5 cm of a mouse tail was immersed in warm (55 °C) water contained in a 1.5-L heated water bath. The time from the onset of the noxious heat stimulus to the withdrawal of the tail from the heat source was recorded.

[6] = system: C57BL/6J mice; assay: Breathing rate in mice (Oxymax/CLAMS), morphine-induced respiratory depression; type: in vivo
Description: Mice were administered intranasal saline or OL-CTOP (100 or 600 μg) 45 min prior to intraperitoneal morphine (20 mg/kg).
Respiration rates (in breaths per minute) were assessed using the Oxymax/CLAMS system (Columbus Instruments, Columbus, OH, USA) as described previously. Mice were habituated to their individual sealed housing chambers for 60 min before testing. Mice were administered morphine (20 mg/kg, i.p.) or vehicle, as indicated, and 5 min later, confined to the CLAMS testing chambers. Additional mice received pretreatment with saline (i.n.s.) or OL-CTOP (100 or 600 μg, i.n.s.) 45 min prior to morphine (20 mg/kg, i.p.). Pressure monitoring within the sealed chambers measured the frequency of respiration. Respiration data were averaged over 20 min periods for 120 min post-i.p. injection of the saline or morphine. Data are presented as % vehicle response ± SEM, breaths per minute.

[7] = in vivo; cited from earlier work
Description: Opioid medication misuse, addiction, and overdose are growing public health problems nationwide. Methadone, buprenorphine, naltrexone and naloxone are the only FDA-approved medications to treat opioid use disorder (OUD) and, in the case of opioid receptor antagonists naltrexone and naloxone, overdose. […] Given their potency, peptides represent particularl ...

[8] = target: T1, asialofetuin (ASF) (Bos taurus, UniProt P12763); assay: Carbohydrate-binding study by isothermal titration calorimetry (ITC)
T1 construct: purchased Sigma-Aldrich
T1 sequence (P12763 19-359): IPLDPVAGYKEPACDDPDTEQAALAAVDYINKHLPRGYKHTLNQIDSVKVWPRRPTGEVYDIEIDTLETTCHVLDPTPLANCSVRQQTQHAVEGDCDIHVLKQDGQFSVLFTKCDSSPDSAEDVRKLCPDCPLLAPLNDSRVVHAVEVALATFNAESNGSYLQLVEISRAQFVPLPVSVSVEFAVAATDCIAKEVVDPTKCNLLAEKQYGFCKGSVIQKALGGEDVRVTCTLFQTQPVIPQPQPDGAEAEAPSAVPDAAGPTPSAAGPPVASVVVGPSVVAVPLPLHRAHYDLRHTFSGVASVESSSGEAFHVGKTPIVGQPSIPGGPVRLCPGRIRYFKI
Description: We have shown previously that odorranalectin binds to model glycoproteins containing terminal Fuc, Gal and GalNAc sugar moieties with μM affinities and identified the binding interface. […] The binding affinities of OL-CTOP toward ASF were determined by Isothermal Titration Calorimetry (ITC). […] The enthalpy (ΔH) of the binding interaction between OL-CTOP and ASF was −131 kJ/mol, whereas the entropy (−TΔS) was 109.5 kJ/mol, showing that the OL-CTOP/ASF interaction is an enthalpy-driven process, which is typical for interactions between lectins and carbohydrate ligands.
A binding study was performed at 25 °C in 20 mM HEPES at pH 7.0 by using a titration calorimeter PEAQ-ITC (Malvern, Northampton, MA) with a reaction cell volume of 300 μL. Typically, asialofetuin solutions (240 μM) were in the reaction cell and titrated with solutions of OL-CTOP at a concentration of 4000 μM. OL-CTOP and asialofetuin were dialyzed and prepared in the same buffer. At least 18 consecutive injections of 2 μL were applied every 120 s interval at a constant stir speed of 750 rpm. The concentrations of OL-CTOP and ASF were confirmed by measurements using a BioTek Epoch microplate spectrophotometer (Agilent Technologies, Santa Clara, CA, USA). The raw integrated heat plots were analyzed using the MicroCal PEAQ-ITC software v1.21 (Malvern) under the 1-set-of-sites model, and the control parameter as a fitted offset was applied to each titration as per the manufacturer’s guidelines and our previous applications. The reported thermodynamic parameters were derived from two independent experiments and then averaged.

[9] = target: T2, trypsin immobilized on agarose resin (Bos taurus, UniProt P00760); assay: Proteolytic stability toward immobilized trypsin; details: RP-HPLC and MALDI-TOF MS
T2 sequence (P00760 24-246): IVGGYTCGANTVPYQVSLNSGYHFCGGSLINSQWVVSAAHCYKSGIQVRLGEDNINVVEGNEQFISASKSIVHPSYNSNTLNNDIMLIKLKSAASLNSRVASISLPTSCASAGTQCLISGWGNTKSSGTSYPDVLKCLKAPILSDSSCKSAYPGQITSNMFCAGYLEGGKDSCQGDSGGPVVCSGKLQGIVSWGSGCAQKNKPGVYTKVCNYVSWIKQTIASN
Description: Immobilized trypsin helped eliminate enzyme digest contamination and thus simplify sample analysis. […] After incubation at 37 °C for 20 min, 1 h, and 16 h, 20 μL of treated samples was collected and analyzed by analytical RP-HPLC and MALDI-TOF MS (Supplementary Materials).

[10] = target: KOR (Mus musculus, UniProt P33534); assay: 55 °C warm-water tail-withdrawal test, antagonism of KOR-selective agonist U50,488; details: mice; 100 μg i.n.s. pretreatment; U50,488 100 nmol i.c.v.; p = 0.99; 7–8 mice
Sequence of KOR (P33534 whole entry): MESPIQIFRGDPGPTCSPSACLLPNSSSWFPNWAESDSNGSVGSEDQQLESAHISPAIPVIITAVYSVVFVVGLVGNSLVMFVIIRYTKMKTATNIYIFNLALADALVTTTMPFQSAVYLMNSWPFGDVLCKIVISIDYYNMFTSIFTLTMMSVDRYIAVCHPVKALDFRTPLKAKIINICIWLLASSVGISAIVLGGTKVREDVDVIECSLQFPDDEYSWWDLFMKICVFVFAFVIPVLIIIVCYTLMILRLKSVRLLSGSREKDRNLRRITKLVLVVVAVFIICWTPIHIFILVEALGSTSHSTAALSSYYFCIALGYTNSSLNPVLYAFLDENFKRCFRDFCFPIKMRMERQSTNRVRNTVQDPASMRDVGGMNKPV
Description: (§1) All solutions for animal administration were prepared fresh daily. All mice were lightly anesthetized with isoflurane (0.4%) prior to compound administration. […] The volume of all i.c.v. injections was 5 μL, using a 10-μL Hamilton microliter syringe. An incision was made in the scalp of the lightly anesthetized mouse, and the injection was made 2 mm lateral and 2 mm caudal to bregma at a depth of 3 mm.
(§2) The distal 2.5 cm of a mouse tail was immersed in warm (55 °C) water contained in a 1.5-L heated water bath. The time from the onset of the noxious heat stimulus to the withdrawal of the tail from the heat source was recorded.

[11] = target: DOR (Mus musculus, UniProt P32300); assay: 55 °C warm-water tail-withdrawal test, antagonism of DOR-selective agonist SNC-80; details: mice; 100 μg i.n.s. pretreatment; SNC-80 100 nmol i.c.v.; p = 0.67; 7–8 mice
Sequence of DOR (P32300 whole entry): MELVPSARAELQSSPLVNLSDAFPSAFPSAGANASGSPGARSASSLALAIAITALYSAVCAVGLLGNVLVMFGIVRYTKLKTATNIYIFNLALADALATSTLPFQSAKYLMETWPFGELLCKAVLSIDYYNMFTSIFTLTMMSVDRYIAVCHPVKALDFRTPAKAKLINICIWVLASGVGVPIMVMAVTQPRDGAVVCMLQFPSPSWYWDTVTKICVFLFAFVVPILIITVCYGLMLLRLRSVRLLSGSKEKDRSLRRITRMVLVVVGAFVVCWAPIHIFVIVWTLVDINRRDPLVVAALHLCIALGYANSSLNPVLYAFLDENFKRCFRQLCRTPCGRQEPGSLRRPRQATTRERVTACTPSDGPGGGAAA
Description: as §1, §2

[12] = target: T3, MOR (Mus musculus, UniProt P42866); assay: 55 °C warm-water tail-withdrawal test, antagonism of i.c.v. morphine; type: in vivo, C57BL/6J mice; details: mice, p = 0.003
T3 construct: MOR antagonism by CTOP was confirmed in vivo by pretreating mice with the parent peptide; from tissue; host or cells: living male C57BL/6J mice (central nervous system)
T3 sequence (P42866 whole entry): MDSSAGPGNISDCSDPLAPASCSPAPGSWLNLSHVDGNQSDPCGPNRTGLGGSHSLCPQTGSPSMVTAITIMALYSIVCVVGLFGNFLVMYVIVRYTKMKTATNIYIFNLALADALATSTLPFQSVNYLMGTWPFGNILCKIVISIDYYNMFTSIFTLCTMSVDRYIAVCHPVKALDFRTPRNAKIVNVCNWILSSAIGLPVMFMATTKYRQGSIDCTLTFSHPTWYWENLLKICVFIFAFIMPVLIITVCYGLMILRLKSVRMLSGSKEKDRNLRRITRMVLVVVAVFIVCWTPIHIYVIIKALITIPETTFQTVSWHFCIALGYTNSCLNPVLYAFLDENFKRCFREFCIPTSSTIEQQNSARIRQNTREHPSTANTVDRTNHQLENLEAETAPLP

[13] = 25 °C, 20 mM HEPES pH 7.0, average of two independent experiments

Compound: YASPK-cyclo(CFRYPNGVLAC)T (disulfide) [odorranalectin]
- affinity for model glycoproteins [1]: μM affinities

Compound: Y-A-S-P-K-C-F-R-f-C-Y-w-O-T-Pen-T-C-T-NH2
- cleaved bond [2]: K-C, first_seen, within the first 10 min; also recorded: Arg8-phe9, major, 1 h

Compound: C[C@@H](O)[C@H](NC(=O)[C@H]1NC(=O)[C@H]([C@@H](C)O)NC(=O)[C@H](CCCN)NC(=O)[C@@H](Cc2c[nH]c3ccccc23)NC(=O)[C@H](Cc2ccc(O)cc2)NC(=O)[C@@H](NC(=O)[C@H](N)Cc2ccccc2)CSSC1(C)C)C(N)=O [CTOP, H-D-Phe-cyclo(Cys-Tyr-D-Trp-Orn-Thr-Pen)-Thr-NH2]
- affinity for μ-opioid receptors (MOR) [3]: 2.8 nM
- MOR antagonism, times more potent than naloxone [4]: 10–400 times

Compound: CN1CC[C@]23c4c5ccc(O)c4O[C@H]2[C@@H](O)C=C[C@H]3[C@H]1C5 [morphine, reference compound]
- tail-withdrawal latency after the agonist alone ([5]; control (naïve) mice, 10 nmol i.c.v., versus baseline 1.49 ± 0.09 s, p < 0.0001): significant increase in tail-withdrawal latency
- respiration after morphine with saline pretreatment versus vehicle alone ([6]; morphine 20 mg/kg i.p. after i.n.s. saline, 10–60 min, p < 0.0001): significant, time-dependent respiratory depression

Compound: oxytocin
- plasma t1/2 [7]: 1 to 6 min
- t1/2 in the extracellular space of the brain and in the CSF [7]: approximately 30 min

Compound: C[C@H](NC(=O)[C@@H](N)Cc1ccc(O)cc1)C(=O)N[C@@H](CO)C(=O)N1CCC[C@H]1C(=O)N[C@@H](CCCCN)C(=O)N[C@H]1CSSC[C@@H](C(=O)N[C@H](C(N)=O)[C@@H](C)O)NC(=O)[C@H]([C@@H](C)O)NC(=O)[C@H]2NC(=O)[C@H]([C@@H](C)O)NC(=O)[C@H](CCCN)NC(=O)[C@@H](Cc3c[nH]c4ccccc34)NC(=O)[C@H](Cc3ccc(O)cc3)NC(=O)[C@H](CSSC2(C)C)NC(=O)[C@@H](Cc2ccccc2)NC(=O)[C@H](CCCNC(=N)N)NC(=O)[C@H](Cc2ccccc2)NC1=O [OL-CTOP] (H-YASPKCFR[dF]CY[dW][Orn]T[Pen]TCT-NH2; disulfide 6-17, 10-15; N-terminus assumed)
- ΔG of binding ([8]; 20 mM HEPES pH 7.0, one-set-of-sites model): -5.14 kcal/mol
- Kd ([8]; 25 °C, 20 mM HEPES pH 7.0, ASF 240 μM in cell, peptide 4000 μM, one-set-of-sites model, average of two independent experiments, read-out: Kd, OL-CTOP/ASF binding): 176 µM
- enthalpy (ΔH) of binding [8, 13]: -31.3 kcal/mol
- entropy (−TΔS) of binding [8, 13]: 26.17 kcal/mol
- further cleavage after 1 h incubation with trypsin ([9]; 1 h, immobilized TPCK trypsin, 0.1 M NH4HCO3 pH 8.0, 37 °C): the peptide bond between Arg^8 and phe^9 was also cleaved
- parent peptide remaining after the first 10 min with trypsin ([9]; TPCK trypsin immobilized on agarose, 20 TAME units, 0.1 M NH4HCO3 pH 8.0, 1 mg peptide, 37 °C): without a detectable trace of the parent peptide
- antagonism of KOR-selective agonist U50,488 [10]: without effect
- antagonism of DOR-selective agonist SNC-80 [11]: without effect
- antagonism of MOR-preferring agonist morphine (selectivity test) ([12]; 100 μg i.n.s. pretreatment, morphine 10 nmol i.c.v., 7–8 mice): significant antagonism
- antagonism of morphine antinociception, intranasal pretreatment 30-600 μg ([12]; 30, 100, 300 or 600 μg i.n.s., morphine 10 nmol i.c.v. after return to baseline at 45 min, latency 20, 30, 40 min afterward, five to eight mice): significant general reduction in the antinociceptive effect of morphine
- increase in tail withdrawal latency from baseline, peptide alone ([5]; mice, 100, 300 or 600 μg i.n.s., out to 30 min post-administration, p = 0.01): ~ 1 s
- protection from morphine-induced respiratory depression, 100 μg ([6]; 100 μg i.n.s. 45 min prior to morphine 20 mg/kg i.p., p = 0.05 at 20–40 min, p = 0.02 at 40–60 min vs morphine alone): significantly prevented morphine-induced respiratory depression
- respiration rate versus vehicle-treated mice, late period, 100 μg ([6]; 100 μg i.n.s. before morphine 20 mg/kg i.p., 60–120 min, p ≤ 0.03): elevated respiration
- respiration rate versus vehicle-treated mice out to 60 min, 100 μg ([6]; 100 μg i.n.s. before morphine 20 mg/kg i.p., p = 0.06, 0.55 and 0.75): no significant differences in respiration rate
- protection from morphine-induced respiratory depression, 600 μg ([6]; 600 μg i.n.s. 45 min prior to morphine 20 mg/kg i.p., p ≤ 0.009, 0–60 min vs morphine alone): significantly prevented morphine-induced respiratory depression
- respiration rate versus vehicle-treated mice, 600 μg ([6]; 600 μg i.n.s. before morphine 20 mg/kg i.p., 20–120 min, p ≤ 0.04): elevated respiration
